Data from patent publication US10799442B2, “Compounds useful in the treatment and/or care of the skin, hair, nails, and/or mucous membranes” (LUBRIZOL ADVANCED MATERIALS, INC., priority 2015, dated 2020).
[ ]: non-standard residue; d: D form. The star is where a group is joined. Palmitoyl = CCCCCCCCCCCCCCCC(=O)*; NHhexadecyl = CCCCCCCCCCCCCCCCN*; Myristoyl = CCCCCCCCCCCCCC(=O)*; Orn = NCCC[C@H](N)C(=O)O; NHHex = CCCCCCN*

System: human miRNA145
Assay: miRNA145 inhibition on Human Keratinocyte HaCaT cell line, direct quantification by luminescence
Assay type: cell-based
Settings: HaCaT cells, 0.3 mg/ml, 24 hours, normalized with Snord48; mean of 3 experiments for DD14024, one experiment for the others
Method: The synthetic peptide candidates are evaluated for the inhibition of human miRNA145 expression level using a direct miRNA145 quantification assay based on luminescence detection in a Human Keratinocyte HaCaT cell line.
HaCat cells (Deutsches Krebsforschungszentrum) are seeded at 3.0×10^4 cells/well in 96-clear wells plates and incubated in a culture medium [(DMEM High Glucose with L-Glutamine (Lonza), supplemented with 10% Fetal Bovine Serum (Cultek)] for 24 hours at 37° C. in a water-saturated atmosphere of 95% air and 5% CO2. Then, the cells with the candidates added at 0.3 mg/ml in the culture medium are treated for 24 hours at 37° C., 95% air and 5% CO2. Cells with culture medium only are treated to the same conditions to provide basal conditions. Each cell culture condition is assayed at least in 6 biological replicates. At the end of the incubation period, the cells are lysed and the relative miRNA145 expression level is quantified by a specific assay kit (QuantiGene™ 2.0 miRNA Assay Kit) following manufacturer's instructions (Affymetrix). Briefly, to capture miRNA145, culture lysates are incubated overnight at 46±1° C. in 96-white well plates with the miRNA145 specific probe set (Capture extenders and Label extenders). As an endogenous expression control, the housekeeping Snord48 is quantified using a specific probe set. Next day, the signal amplification tree is built via sequential hybridization at 46±1° C. of three probes: PreAmplifier, Amplifier and Alkaline Phosphatase Label Probe. Then, the signal is detected by adding a chemiluminescent substrate and using a Microplate Luminometer Reader (Clariostar-BMG LabTech).
The miRNA145 expression level result is normalized with the Snord48 expression level for each cell culture condition and the relative decrease in the miRNA145 expression level is calculated respect to basal control (cells treated with culture medium only). The values represent the mean of 3 independent experiments for DD14024, and for the other candidates, represent the result of one experiment.

Substance	Relative level of miRNA145 respect to basal control (%)
Ac-Glu-Glu-Met-Arg-Met-Gln-OH (Ac-EEMRMQ-OH) [DD15051]	92.26 ± 1.61%
Ac-Asp-Gln-Met-Arg-Met-Gln-OH (Ac-DQMRMQ-OH) [DD15053]	58.64 ± 0.04%
Ac-Pro-Gln-Glu-Met-Arg-Met-Gln-OH (Ac-PQEMRMQ-OH) [DD15045]	90.71 ± 4.78%
Ac-Glu-Gln-Met-Arg-Met-Gln-OH (Ac-EQMRMQ-OH) [DD15054]	72.50 ± 2.88%
Ac-Gln-Glu-Met-Arg-Met-Asn-OH (Ac-QEMRMN-OH) [DD15056]	72.43 ± 1.39%
Ac-Gln-Glu-Met-Lys-Leu-Gln-OH (Ac-QEMKLQ-OH) [DD15024]	87.92 ± 1.32%
H-Gln-Glu-Ile-Arg-Met-Gln-NH2 (H-QEIRMQ-NH2) [DD15016]	87.63 ± 4.46%
Ac-Gln-Glu-Met-Arg-Met-Glu-OH (Ac-QEMRME-OH) [DD15020]	62.43 ± 0.89%
Ac-Gln-Glu-Met-Arg-Met-Gln-Thr-NH2 (Ac-QEMRMQT-NH2) [DD15047]	77.67 ± 9.10%
Ac-Gln-Asp-Met-Lys-Met-Asn-OH (Ac-QDMKMN-OH) [DD15027]	78.47 ± 0.74%
Ac-Gln-Glu-Met-Arg-Met-Gln-Val-Tyr-OH (Ac-QEMRMQVY-OH) [DD15049]	80.09 ± 7.49%
Ac-QEM[Orn]MQ-OH [DD15022]	75.41 ± 2.25%
Ac-Gln-Gln-Met-Arg-Met-Gln-OH (Ac-QQMRMQ-OH) [DD15014]	80.06 ± 3.47%
H-Gln-Glu-Met-Arg-Met-Gln-OH (H-QEMRMQ-OH) [DD15002]	89.75 ± 0.69%
Myr-Glu-Glu-Met-Arg-Met-Gln-OH (Myristoyl-EEMRMQ-OH; SMILES CCCCCCCCCCCCCC(=O)N[C@@H](CCC(=O)O)C(=O)N[C@@H](CCC(=O)O)C(=O)N[C@@H](CCSC)C(=O)N[C@@H](CCCNC(=N)N)C(=O)N[C@@H](CCSC)C(=O)N[C@@H](CCC(N)=O)C(=O)O) [DD15011]	73.29 ± 4.37%
H-Gln-Glu-Met-Arg-Ile-Gln-NH2 (H-QEMRIQ-NH2) [DD15019]	67.00 ± 2.89%

Substance	Relative level of miRNA145 respect to basal control (%)
Ac-Gln-Glu-Met-Arg-Met-Gln-NH2 (Ac-QEMRMQ-NH2) [DD14023]	87.03 ± 2.65%
Myr-Gln-Glu-Met-Arg-Met-Gln-NH2 (Myristoyl-QEMRMQ-NH2) [DD15052]	92.94 ± 1.35%
Ac-Asn-Glu-Ile-Arg-Val-Gln-OH (Ac-NEIRVQ-OH) [DD15026]	77.60 ± 5.43%
Ac-Ser-Gln-Glu-Met-Arg-Met-Gln-Thr-NH2 (Ac-SQEMRMQT-NH2) [DD15050]	72.44 ± 3.87%
H-Gln-Glu-Met-Arg-Leu-Gln-NH2 (H-QEMRLQ-NH2) [DD15055]	67.03 ± 0.23%
Ac-Gln-Glu-Met-Arg-Met-Gln-NHC6H13 (Ac-QEMRMQ-NHHex) [DD15004]	89.03 ± 5.37%
Ac-Glu-Glu-Ile-Arg-Met-Gln-NHC16H33 (Ac-EEIRMQ-NHhexadecyl; SMILES CCCCCCCCCCCCCCCCNC(=O)[C@H](CCC(N)=O)NC(=O)[C@H](CCSC)NC(=O)[C@H](CCCNC(=N)N)NC(=O)[C@@H](NC(=O)[C@H](CCC(=O)O)NC(=O)[C@H](CCC(=O)O)NC(C)=O)[C@@H](C)CC) [DD15023]	74.48 ± 3.34%
Ac-Gln-Glu-Met-Lys-Met-Gln-OH (Ac-QEMKMQ-OH) [DD15017]	85.50 ± 1.74%
H-Gln-Asp-Met-Arg-Met-Asn-NH2 (H-QDMRMN-NH2) [DD15025]	86.95 ± 0.55%
Palm-Gln-Glu-Met-Arg-Met-Gln-OH (Palmitoyl-QEMRMQ-OH) [DD15003]	76.38 ± 7.00%
Ac-Pro-Val-Gln-Glu-Met-Arg-Met-Gln-OH (Ac-PVQEMRMQ-OH) [DD15048]	89.54 ± 3.79%
Ac-Gln-Asp-Met-Arg-Met-Gln-NHC6H13 (Ac-QDMRMQ-NHHex; SMILES CCCCCCNC(=O)[C@H](CCC(N)=O)NC(=O)[C@H](CCSC)NC(=O)[C@H](CCCNC(=N)N)NC(=O)[C@H](CCSC)NC(=O)[C@H](CC(=O)O)NC(=O)[C@H](CCC(N)=O)NC(C)=O) [DD15013]	84.32 ± 6.96%
Palm-Gln-Glu-Leu-Arg-Met-Gln-OH (Palmitoyl-QELRMQ-OH; SMILES CCCCCCCCCCCCCCCC(=O)N[C@@H](CCC(N)=O)C(=O)N[C@@H](CCC(=O)O)C(=O)N[C@@H](CC(C)C)C(=O)N[C@@H](CCCNC(=N)N)C(=O)N[C@@H](CCSC)C(=O)N[C@@H](CCC(N)=O)C(=O)O) [DD15015]	14.07 ± 0.28%
Ac-Asp-Glu-Met-Arg-Met-Gln-OH (Ac-DEMRMQ-OH) [DD15012]	71.05 ± 3.82%
Ac-Gln-Glu-Met-Arg-Met-Gln-Tyr-OH (Ac-QEMRMQY-OH) [DD15046]	74.02 ± 1.98%
